According to patent publication US12240840B2, “Amide-substituted heterocyclic compounds for the treatment of conditions related to the modulation of IL-12, IL-23 and/or IFN-alpha” (BRISTOL-MYERS SQUIBB COMPANY, priority 2018, dated 2025):

Tested on: IFNα-induced pSTAT5 (pY694) in CD3 positive cells of human whole blood
Experiment: IFNα-Induced STAT Phosphorylation in Human Whole Blood
Type: cell-based
Conditions: Homo sapiens, 1 h compound incubation, 1000 U/mL recombinant human IFNα A/D for 15 min, pSTAT5 in CD3 positive population, read-out: Human WB IFNα-Induced Stat Phosph. (IC50)
Outline: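 Read-out is median fluorescence intensity of pSTAT5 (pY694) in the CD3-positive gate, by flow cytometry after fix/lyse and permeabilization. Before that, whole human blood anticoagulated with EDTA or ACD-A received compound for an hour and 1000 U/mL IFNα A/D for 15 min.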

| SMILES | IC50 |
| --- | --- |
| COc1c(Nc2cc(NC(=O)C3CC3)ncc2C(N)=O)cccc1-c1nc(CN2CCOCC2)no1 [Example 576, 6-(cyclopropanecarboxamido)-4-((2-methoxy-3-(3-(morpholinomethyl)-1,2,4-oxadiazol-5-yl)phenyl)amino)nicotinamide] | 13 nM |
| COc1c(Nc2cc(NC(=O)C3CC3)ncc2C(N)=O)cccc1-c1nc(CN2CCN(S(C)(=O)=O)CC2)no1 [Example 577] | 19 nM |
| COc1c(Nc2cc(NC(=O)C3CC3)ncc2C#N)cccc1-c1nc(CN2CCN(S(C)(=O)=O)CC2)no1 [Example 578] | 4340 nM |
